Bridge positions count the residues as written; N and C are the ends. Peptide text beside a SMILES is read from it.
Experiments:
[1] = system: LX-2; assay: Anti-fibrotic activity in human LX2 cells assessed as reduction in COL1alpha expression by measuring relative inhibition rate measured after 24 hrs incubation by Western blot analysis relative to control; assay type: functional; parameters: concentration or dose not given beside the values
[2] = system: LX-2; assay: Anti-fibrotic activity in human LX2 cells assessed as reduction in […] expression by measuring relative inhibition rate measured after 24 hrs incubation by Western blot analysis relative to control; assay type: functional; parameters: concentration or dose not given beside the values

| Compound | Activity [1] | Activity [2] |
| --- | --- | --- |
| CC(C)C[C@@H]1NC(=O)[C@H]([C@@H](C)O)NC(=O)[C@@H]2CCCN2C(=O)[C@H](CO)NC(=O)[C@H](CC(N)=O)NC(=O)[C@H](CCCCN)NC(=O)[C@H](C)NC(=O)[C@@H](N)CSSC[C@@H](C(=O)O)NC1=O (H-CAKNSPTLC-OH; disulfide 1-9) | 90.3% | 76.4% |
| CC(C)C[C@@H]1NC(=O)[C@H]([C@@H](C)O)NC(=O)[C@@H]2CCCN2C(=O)[C@H](CO)NC(=O)[C@H](CC(N)=O)NC(=O)[C@H](C)NC(=O)[C@H](CCCCN)NC(=O)[C@@H](N)CSSC[C@@H](C(=O)O)NC1=O (H-CKANSPTLC-OH; disulfide 1-9) | 139.1% | 88.9% |
| CC(C)C[C@@H]1NC(=O)[C@H]([C@@H](C)O)NC(=O)[C@@H]2CCCN2C(=O)[C@H](CO)NC(=O)[C@H](C)NC(=O)[C@H](CCCCN)NC(=O)[C@H](CCCCN)NC(=O)[C@@H](N)CSSC[C@@H](C(=O)O)NC1=O (H-CKKASPTLC-OH; disulfide 1-9) | 132.9% | 87.7% |
| CC(C)C[C@@H]1NC(=O)[C@H]([C@@H](C)O)NC(=O)[C@@H]2CCCN2C(=O)[C@H](CO)NC(=O)[C@H](CC(=O)O)NC(=O)[C@H](CCCCN)NC(=O)[C@H](CCCCN)NC(=O)[C@@H](N)CSSC[C@@H](C(=O)O)NC1=O (H-CKKDSPTLC-OH; disulfide 1-9) | 64.7% | 82.4% |
| CC(C)C[C@@H]1NC(=O)[C@H]([C@@H](C)O)NC(=O)[C@@H]2CCCN2C(=O)[C@H](C)NC(=O)[C@H](CC(N)=O)NC(=O)[C@H](CCCCN)NC(=O)[C@H](CCCCN)NC(=O)[C@@H](N)CSSC[C@@H](C(=O)O)NC1=O (H-CKKNAPTLC-OH; disulfide 1-9) | 99.4% | 74.5% |
| CC(C)C[C@@H]1NC(=O)[C@H]([C@@H](C)O)NC(=O)[C@H](C)NC(=O)[C@H](CO)NC(=O)[C@H](CC(N)=O)NC(=O)[C@H](CCCCN)NC(=O)[C@H](CCCCN)NC(=O)[C@@H](N)CSSC[C@@H](C(=O)O)NC1=O (H-CKKNSATLC-OH; disulfide 1-9) | 140.1% | 91.8% |
| CC(C)C[C@@H]1NC(=O)[C@H](CO)NC(=O)[C@H](CC(N)=O)NC(=O)[C@H](CCCCN)NC(=O)[C@H](CCCCN)NC(=O)[C@@H](N)CSSC[C@@H](C(=O)O)NC(=O)[C@H](CC(C)C)NC(=O)[C@H]([C@@H](C)O)NC1=O (H-CKKNSLTLC-OH; disulfide 1-9) | 66.1% | 68.9% |
| CC(C)C[C@@H]1NC(=O)[C@H](C)NC(=O)[C@@H]2CCCN2C(=O)[C@H](CO)NC(=O)[C@H](CC(N)=O)NC(=O)[C@H](CCCCN)NC(=O)[C@H](CCCCN)NC(=O)[C@@H](N)CSSC[C@@H](C(=O)O)NC1=O (H-CKKNSPALC-OH; disulfide 1-9) | 79.7% | 61.2% |
| CC(C)C[C@@H]1NC(=O)[C@H](CCC(=O)O)NC(=O)[C@@H]2CCCN2C(=O)[C@H](CO)NC(=O)[C@H](CC(N)=O)NC(=O)[C@H](CCCCN)NC(=O)[C@H](CCCCN)NC(=O)[C@@H](N)CSSC[C@@H](C(=O)O)NC1=O (H-CKKNSPELC-OH; disulfide 1-9) | 59.2% | 82.9% |
| CC(C)C[C@@H]1NC(=O)[C@H](CCCNC(=N)N)NC(=O)[C@@H]2CCCN2C(=O)[C@H](CO)NC(=O)[C@H](CC(N)=O)NC(=O)[C@H](CCCCN)NC(=O)[C@H](CCCCN)NC(=O)[C@@H](N)CSSC[C@@H](C(=O)O)NC1=O (H-CKKNSPRLC-OH; disulfide 1-9) | 76.7% | 92.6% |
| CC(C)C[C@@H]1NC(=O)[C@H](CO)NC(=O)[C@@H]2CCCN2C(=O)[C@H](CO)NC(=O)[C@H](CC(N)=O)NC(=O)[C@H](CCCCN)NC(=O)[C@H](CCCCN)NC(=O)[C@@H](N)CSSC[C@@H](C(=O)O)NC1=O (H-CKKNSPSLC-OH; disulfide 1-9) | 69.4% | 93.8% |
| C[C@@H]1NC(=O)[C@H]([C@@H](C)O)NC(=O)[C@@H]2CCCN2C(=O)[C@H](CO)NC(=O)[C@H](CC(N)=O)NC(=O)[C@H](CCCCN)NC(=O)[C@H](CCCCN)NC(=O)[C@@H](N)CSSC[C@@H](C(=O)O)NC1=O (H-CKKNSPTAC-OH; disulfide 1-9) | 74.1% |  |
| C[C@@H](O)[C@@H]1NC(=O)[C@@H]2CCCN2C(=O)[C@H](CO)NC(=O)[C@H](CC(N)=O)NC(=O)[C@H](CCCCN)NC(=O)[C@H](CCCCN)NC(=O)[C@@H](N)CSSC[C@@H](C(=O)O)NC(=O)[C@H](Cc2c[nH]cn2)NC1=O (H-CKKNSPTHC-OH; disulfide 1-9) | 62.6% | 71.5% |
| CC(C)C[C@@H]1NC(=O)[C@H]([C@@H](C)O)NC(=O)[C@@H]2CCCN2C(=O)[C@H](CO)NC(=O)[C@H](CC(N)=O)NC(=O)[C@H](CCCCN)NC(=O)[C@H](CCCCN)NC(=O)[C@@H](N)CSSC[C@@H](C(=O)O)NC1=O (H-CKKNSPTLC-OH; disulfide 1-9) | 57.5% | 66.4% |
| C[C@@H](O)[C@@H]1NC(=O)[C@@H]2CCCN2C(=O)[C@H](CO)NC(=O)[C@H](CC(N)=O)NC(=O)[C@H](CCCCN)NC(=O)[C@H](CCCCN)NC(=O)[C@@H](N)CSSC[C@@H](C(=O)O)NC(=O)[C@H](CCC(N)=O)NC1=O (H-CKKNSPTQC-OH; disulfide 1-9) | 74.6% | 82.3% |
| C[C@@H](O)[C@@H]1NC(=O)[C@H]([C@@H](C)O)NC(=O)[C@@H]2CCCN2C(=O)[C@H](CO)NC(=O)[C@H](CC(N)=O)NC(=O)[C@H](CCCCN)NC(=O)[C@H](CCCCN)NC(=O)[C@@H](N)CSSC[C@@H](C(=O)O)NC1=O (H-CKKNSPTTC-OH; disulfide 1-9) | 66.1% | 84.9% |
| CC(C)C[C@@H]1NC(=O)[C@H]([C@@H](C)O)NC(=O)[C@@H]2CCCN2C(=O)[C@H]([C@@H](C)O)NC(=O)[C@H](CC(N)=O)NC(=O)[C@H](CCCCN)NC(=O)[C@H](CCCCN)NC(=O)[C@@H](N)CSSC[C@@H](C(=O)O)NC1=O (H-CKKNTPTLC-OH; disulfide 1-9) | 85.7% | 91.6% |

Source: ChEMBL document CHEMBL5523746, “Discovery of Novel Peptide Antagonists Targeting GPR55 for Liver Inflammation and Fibrosis” (2024)
